From US11638709B2, “Rucaparib, Talazoparib, Veliparib, Olaparib and AZD 2461 for treating impaired skin wound healing” (AKRIBES BIOMEDICAL GMBH, priority 2017, dated 2023)
Entries after “also recorded” stand apart in the source; their conditions may differ.

What was measured:
[1] = tested on: primary human dermal fibroblasts (HDF); assay: Fibroblast-derived matrix (FDM) formation assay (3D) with wound exudate; format: cell-based; conditions: for 3D fibroblast culture (FDM formation), effect of PARP inhibitors: FIG. 7, WE from patient #78
Experimental: HDF cells were seeded at 5000 cells/well on day −3 into 96-well tissue culture plates (1250 cells/well for 384-well plates), which had been pre-coated for 1 hour at 37° C. with 0.2% gelatin solution (Sigma). When the cells reached confluence (=day 0), a matrix promoting supplement (vitamin C: 2-phospho-L-ascorbic acid trisodium salt, 100 μg/ml; Sigma) was added together with test samples containing PDGF-BB, TGF-ß1 or graded concentrations of compounds −/+WE as described for the HDF proliferation assay. After 4 days, medium was replaced by fresh vitamin C—and stimulus—as well as compound-containing medium, maintaining the conditions initiated on day 0. TGF-ß1 and PDGF-BB were included as positive controls to promote FDM formation and cell growth, respectively. After a total incubation time of 8 days, FDM production was measured in fixed cultures via SRB staining and evaluated as described above. In some cases, the experiment was stopped and evaluated already on day 4.
(§1) Low molecular weight compounds (see list in Table 1) were dissolved in DMSO (Bioreagent for cell culture, Sigma) at 10 mM or 100 mM and diluted at least 1:1000 in medium for cellular assays (final DMSO concentration ≤0.1%).
(§2) Cells were incubated with compounds for 72 hours in proliferation assays and up to 8 days for FDM assay (refreshed after 4 days). When compounds were tested for their effect on WE stimulation, the incubation of cells with compounds was started and ended simultaneously with WE-incubation.

[2] = tested on: wound exudate-induced pig wounds; assay: Porcine model of delayed wound healing induced by human wound exudates; format: in vivo; conditions: veliparib 10 mM, talazoparib 1 mM
Excerpt: The pig is regarded as the species with the highest correlation to man in skin anatomy and physiology. Pig wounds tend to heal by a combination of granulation tissue formation and contraction, similar to human wounds, and porcine wound healing studies show a high concordance with human studies. We developed a chronically inflamed porcine wound model. Acute pig wounds were stimulated by a combination of human chronic wound fluids and the toll-like receptors 7 and 8 (TLR7,8) agonist resiquimod (R848).
Female domestic white pigs at the age of 10-12 weeks and a body weight of approximately 12 kg were sedated with 20 mg Ketamin/2 mg Xylacin i.m. followed by inhalation anesthesia via Isofluran. Immediately after induction of anesthesia, a fentanyl transdermal patch (50 μg/h) was applied to control postsurgical pain. The fentanyl patch was replaced daily for the first 3 days after surgery and afterwards only when signs of pain were apparent. Before wounding, the back hair of the animals was clipped and the skin was cleaned with Braunol and disinfected with Skinsept. Then a total of 24 full-thickness excisional wounds per animal were applied using a 6 mm disposable biopsy punch. Immediately after wounding 50 μl of a 0.05% R848 gel was applied topically to the wounds which were covered with dressing (Mölnlycke Health Care AB, Sweden). 6 hours later, the wounds were treated with 3% HPMC (hydroxypropyl methylcellulose)-gellified human wound exudates or human serum as controls. Wound exudates had been harvested from negative pressure wound therapy systems used to treat patients diagnosed with chronic ulcers. Induction of wound inflammation by R848 and wound exudate was carried out for a total of 5 consecutive days.
From day 6 to day 10, veliparib and talazoparib at 10 mM and 1 mM, respectively, were dissolved in vehicle (50% propylene glycol/47.5% water/0.5% Tween 80/2.0% HPMC), applied to the wounds once daily and covered with dressing. Until day 12, wounds and surrounding skin were clinically examined once daily, upon dressing change, and observed changes were scored on a scale from 0-3. The following criteria were used:
The total achievable score (non-healing) is 19. Healing is associated with low scores.

[3] = tested on: IL-1ß secretion by primary human dermal fibroblasts; assay: IL-1ß secretion in the HDF proliferation assay with wound exudate (ELISA); format: cell-based; conditions: FIG. 20
Experimental: (§3) At the end of the 72-hour incubation period, supernatants were removed for the determination of IL-1ß, and the cells were fixed with 4% paraformaldehyde (Morphisto) for 15 minutes at room temperature and washed 3 times with PBS. A control plate was fixed after the overnight adherence of the cells (day 1) to determine the starting cell number.
IL-1ß levels were determined with a commercial ELISA kit. The amount of IL-1ß contained in the wound exudate added to the cells was subtracted from the total IL-ß in the supernatants in order to determine the cytokine secreted by the cells.

[4] = tested on: primary human dermal fibroblasts (HDF); assay: Primary human dermal fibroblast (HDF) proliferation assay (2D) with or without wound exudate; format: cell-based; conditions: for fibroblast proliferation in the absence of WE: FIG. 11, 2D fibroblast culture without WE (control); for HDF proliferation in the presence of WE #78, combined with PDGF / HDF proliferation in the presence of WE #78 / HDF proliferation in the absence of WE: FIG. 14; for HDF proliferation in the presence of WE #78, combined with PDGF: plus PDGF 20 ng/ml; for HDF proliferation in the presence of WE #78 / HDF proliferation in the absence of WE: veliparib 10 μM, talazoparib 1 μM, PDGF 20 ng/ml; for HDF proliferation in the absence of WE / effect on PDGF-induced induction of proliferation in the absence of WE: no WE; for HDF proliferation with wound exudate #78, plus PDGF / HDF proliferation with wound exudate #78: FIG. 15; for HDF proliferation with wound exudate #78, plus PDGF: compound + PDGF 20 ng/ml in medium + WE #78; for HDF proliferation with wound exudate #78: compound in medium + WE #78; for wound exudate-induced inhibition of fibroblast proliferation: FIG. 20, with wound exudate; for effect on PDGF-induced induction of proliferation in the absence of WE: with PDGF
Experimental: Primary human dermal fibroblasts (HDF) were purchased from CELLnTEC, Bern. They were routinely grown in Dulbecco's modified Eagle's medium (DMEM) containing 10% FCS, 2 mM glutamine, and 100 U/ml penicillin/100 μg/ml streptomycin. Media, antibiotics, and glutamine were bought from Lonza. The cells were used at passage 5-15. Cells were trypsinized and seeded at 5000 cells/well in 200 μl into the inner wells of 96-well plates. The outer wells were loaded with sterile water. The cells were allowed to adhere overnight and then incubated for 72 hours at 37° C. under the following conditions: graded compound concentrations or 20 ng/ml PDGF-BB (Tonbo Biosciences) in the absence or presence of different dilutions of sterile-filtered WE in medium. For control samples, 200 μl medium was added instead of specific stimuli. Alternatively, the cells were seeded into 384-well plates at 2500 cells/well directly together with test compounds or growth factors and WE or medium in a total volume of […].
as §3
Total cellular protein was determined as a measure of cell number by staining the fixed cells with sulforhodamine B (SRB, Sigma). A 0.4% SRB solution in 1% acetic acid was added to the wells for 30 minutes. The wells were then washed with 1% acetic acid until the wash solution remained colorless. […] The average absorbance of the sample representing the day 1 starting cell number (for 96-well plates) was subtracted from the absorbance values of the WE-treated cells.
All experiments were carried out in triplicate for each sample and concentration, and means±standard deviation (SD) were used for the evaluation of the experiment. Results are expressed as percentage of control values for unstimulated cells.
as §1, §2

[5] = FIG. 4, 3D fibroblast culture with WE
[6] = FIG. 18, induced by WE #91, topical once daily day 6-10
[7] = FIG. 19, induced by WE #43, day 6-10

| SMILES | formation of fibroblast-derived matrix, optically evaluated by microscopy [1, 5] | 3D fibroblast culture (FDM formation), effect of PARP inhibitors [1] | delayed pig wound healing (time course, clinical score) [2, 6] | delayed pig wound healing (time course, clinical score) [2, 7] | wound exudate-induced IL-1ß secretion [3] | 2D fibroblast culture (HDF proliferation), effect of PARP inhibitors ([4]; FIG. 8, WE from patient #78) | 2D fibroblast culture (HDF proliferation), effect of PARP inhibitors ([4]; FIG. 9, WE from patient #43) | 2D fibroblast culture (HDF proliferation), effect of PARP inhibitors ([4]; FIG. 10, WE from patient #78) | fibroblast proliferation in the absence of WE [4] | 2D fibroblast culture, PARP inhibitor effect ± dexamethasone ± Vit. C ([4]; FIG. 12, WE from patient #78) | 2D fibroblast culture, PARP inhibitor effect ± dexamethasone ± Vit. C ([4]; FIG. 13, WE from patient #43) | HDF proliferation in the presence of WE #78, combined with PDGF [4] | HDF proliferation in the presence of WE #78 [4] | HDF proliferation in the absence of WE [4] | HDF proliferation with wound exudate #78, plus PDGF [4] | HDF proliferation with wound exudate #78 [4] | wound exudate-induced inhibition of fibroblast proliferation [4] | effect on PDGF-induced induction of proliferation in the absence of WE [4] | also measured |
| --- | --- | --- | --- | --- | --- | --- | --- | --- | --- | --- | --- | --- | --- | --- | --- | --- | --- | --- | --- |
| C[C@]1(c2nc3c(C(N)=O)cccc3[nH]2)CCCN1 [Veliparib, 2-((2R)-2-methylpyrrolidin-2-yl)-1H-benzimidazole-4-carboxamide] | “cleaned up” WE-induced fibroblast matrix inhibition | strong and consistent positive effect | improve wound healing | only a minor effect | reducing IL-1ß secretion | strong and consistent positive effect | strong and consistent positive effect | strong and consistent positive effect | either no effect on fibroblast proliferation in the absence of wound exudate, or only a marginal effect | strongly beneficial effects | strongly beneficial effects | additively or synergistically enhanced by PDGF | induce proliferation | no or even an inhibitory effect | even further enhanced by the addition of PDGF | dose-dependent increase of HDF proliferation | enhanced cell proliferation | either had no effect on PDGF-induced induction of proliferation or showed inhibition of the PDGF effect | formation of fibroblast-derived matrix, combination with dexamethasone ([1]; FIG. 4, 3D fibroblast culture with WE, microscopy): superior to each substance alone; formation of fibroblast-derived matrix, veliparib and glucocorticoids combined ([1]; FIG. 5, WE of patient #78 (diabetes, immunosuppression after kidney transplantation)): enhances the effect of glucocorticoids; formation of fibroblast-derived matrix, veliparib and glucocorticoids combined ([1]; FIG. 6, WE of patient #49 (non-diabetic, non-immunosuppressed)): could be enhanced with glucocorticoids, but not vice versa; WE-induced inhibition of fibroblast proliferation (2D HDF proliferation) ([4]; FIG. 1, wound exudate #78 (diabetic patient)): completely reversed inhibition of wound exudate (WE)-induced fibroblast proliferation; human dermal fibroblast proliferation (2D), effect of veliparib ([4]; FIG. 2, WE from patients #49, #43, #78, #27): most prominent in the two patients with diabetes; fibroblast 2D culture, reproducibility of effect ([4]; FIG. 3, WE samples #77 and #78 of one patient (day 1 and day 8), patient on prednisolone): reproducible in different samples of the same patient |
| Cn1ncnc1[C@H]1c2n[nH]c(=O)c3cc(F)cc(c23)N[C@@H]1c1ccc(F)cc1 [Talazoparib] | “cleaned up” WE-induced fibroblast matrix inhibition | most active of the PARP inhibitors tested in 3D culture | improve wound healing | improves wound healing | reducing IL-1ß secretion | strong and consistent positive effect | strong and consistent positive effect | strong and consistent positive effect | weak inhibitory activity; also recorded: either no effect on fibroblast proliferation in the absence of wound exudate, or only a marginal effect | strongly beneficial effects | strongly beneficial effects | additively or synergistically enhanced by PDGF | induce proliferation | no or even an inhibitory effect | even further enhanced by the addition of PDGF | dose-dependent increase of HDF proliferation | enhanced cell proliferation | either had no effect on PDGF-induced induction of proliferation or showed inhibition of the PDGF effect | formation of fibroblast-derived matrix, optically evaluated by microscopy ([1]; FIG. 4, 3D fibroblast culture with WE, listed as talazoparib): particularly strong and beneficial; 3D fibroblast culture (FDM formation), effect of PARP inhibitors ([1]; listed as talazoparib): strong and consistent positive effect |
